Test system: red blood cells
Assay: Red blood cell deformability analysis in microfluidic funnel constriction device (threshold pressure / cortical tension)
Assay type: cell-based
Settings: for Average cortical tension calculated based on equation (1): number in brackets = cells tested
Experimental: The deformability of red blood cells was evaluated using a microfluidic cell separation apparatus. An apparatus comprising a serial funnel configuration (schematically represented in FIG. 4) was employed, with funnel constructions of W0=0.5, 1, 1.5, 2, 3, 4, 5 and 6, 7 μm in series. As red blood cells are toroid or disc-shaped, rather than generally spherical, in the absence of movement restriction, they may progress through the device as a ‘flat’ disk (e.g. sideways), or ‘on edge’ (substantially upright, like a wheel). A channel with a height of about 2-3 μm or less will confine the majority of red blood cells to migrate as a ‘flat disk, while a channel with a height greater than about 3-4 μm will allow the red blood cell to migrate in either configuration, or folded or at an angle. Thus, the apparatus was configured to provide a channel depth of about 3 μm, which confines the cell to move flat into the funnel, not to stand up and fold as it traverses through. The threshold pressure required to push the cell through the funnel is measured as an indicator of the whole cell rigidity or deformability. The minimum applied pressure differential is ˜0.3 Pa. Accordingly, the cortical tension of the cell can be measured based on the information of the cell radius, funnel geometry and measured threshold pressure, as governed by equation (1) above derived from Laplace law PMS (phenazine methosulfate) generates superoxide from within the cell in the same way as the auto-oxidation process inside of the sickled red blood cell (RBC). In response to oxidation, the cell membrane stiffens. This induced stiffening may be employed to simulate the microrheologic properties of dense and/or dehydrated sickle cells (Hebbel, R. P., A. Leung, and N. Mohandas, Oxidation-Induced Changes in Microrheologic Properties of the Red-Blood-Cell Membrane. Blood, 1990. 76(5): p. 1015-1020, Hebbel, R. P., The sickle erythrocyte in double jeopardy: autoxidation and iron decompartmentalization. Seminars in hematology, 1990. 27(1): p. 51-69, and references therein). Here we use microfluidic device to measure the rigidity of PMS treated red blood cells compared to untreated (control) red blood cells, as well as the degree of rigidity change corresponding to different concentration of PMS. RBCs were suspended at 20% hematocrit in balanced salt solution with antibiotics. The RBC suspensions were then modified with 0, 10, 25, and 50 μM PMS for 60 minutes, followed by dilution 200:1 using phosphate buffered saline for use with the apparatus. The PMS treated RBCs and control RBCs were tested to investigate the effect of PMS on rigidity and/or deformability of the RBCs. Measured threshold pressures are an indication of the changes in deformability. […] Threshold pressures were measured of RBC squeezing through 1.1 μm and 1.4 μm constrictions.

COS(=O)(=O)[O-].C[n+]1c2ccccc2nc2ccccc21 [PMS, phenazine methosulfate]
Threshold pressure of RBC squeezing through constrictions (1.1 μm and 1.4 μm constrictions, 0, 10, 25, 50 μM PMS, FIG. 15): increases as the concentration increases
Deformability of the red cell membrane (PMS 10 to 50 μM): decreases as the PMS concentration increases
Average cortical tension calculated based on equation (1) (RBC treated with 10 μmol PMS for 60 minutes): 2.29 ± 0.19 (7) pN/μm
Average cortical tension calculated based on equation (1) (RBC treated with 25 μmol PMS for 60 minutes): 3.38 ± 0.30 (7) pN/μm
Average cortical tension calculated based on equation (1) (RBC treated with 50 μmol PMS for 60 minutes): 4.17 ± 0.19 (8) pN/μm
Red cell rigidity versus normal control RBC (fresh from the PMS treatment): obvious increase in rigidity

From US9880084B2, “Apparatus for separation of particles” (THE UNIVERSITY OF BRITISH COLUMBIA, priority 2011, dated 2018)
